# Patent publication US9382204B2, “Inhibitors targeting the DNA-binding domain of human STAT3 for treatment of metastatic cancers” (Indiana University Research and Technology Corporation, priority 2013, dated 2016)
# What was measured:
# [1] = system: STAT3; experiment: STAT3 dimerization (STAT3c non-reducing PAGE, HA/FLAG co-immunoprecipitation) in H1299 cells; type: cell-based, human; details: 20 μM
# Excerpt: To eliminate the possibility that inS3-54 works by off-targeting to the SH2 domain, we tested if inS3-54 inhibits STAT3 dimerization using FLAG-STAT3c, which forms spontaneous homo-dimers via formation of intermolecular disulfide bond.
# However, inS3-54 had no effect on production of dimeric STAT3c separated using non-reducing SDS-PAGE or non-denaturing PAGE (FIG. 6B) while S3I-201, a STAT3 inhibitor that binds to the SH2 domain, inhibited STAT3c dimerization (FIG. 6B). To confirm this observation, we performed a co-immunoprecipitation analysis of HA and FLAG-tagged STAT3.
# [2] = system: A549 and MDA-MB-231 cells; experiment: Luminescence-based glutathione alkylation assay (GSH-Glo); type: cell-based, human; details: 20 μM inS3-54 48 hours, 15 mM iodoacetamide 30 minutes
# Excerpt: FIG. 5. Effect of inS3-54 glutathione level. […] (***p<0.001).
# To further eliminate the possibility that inS3-54 has alkylating activity, we performed luminescence-based glutathione alkylation assay.
SMILES,"production of dimeric STAT3c ([1]; 24 hrs, non-reducing SDS-PAGE or non-denaturing PAGE)",co-immunoprecipitation between HA- and FLAG-tagged STAT3 ([1]; H1299 cells),glutathione level [2]
"Cc1ccc(S(=O)(=O)OCC(=O)Nc2ccc(C(=O)O)c(O)c2)cc1 [Compound S3I-201, reference compound]",inhibited,inhibited,–
"NC(=O)CI [iodoacetamide, reference compound]",–,–,significantly reduced
